# Values of other authors as cited in article PMC4522133, “Limited predictive value of achieving beneficial plasma (Z)-endoxifen threshold level by CYP2D6 genotyping in tamoxifen-treated Polish women with breast cancer” (BMC Cancer, 2015).
# Key:
# [1] = tamoxifen 20 mg; cited from earlier work
# [2] = test system: ER-positive breast cancers; details: above 5.97 ng/ml; cited from earlier work
compound,measurement,setting,value
"CC/C(=C(\c1ccc(O)cc1)c1ccc(OCCNC)cc1)c1ccccc1 [endoxifen, 4-hydroxy-N-desmethyl-tamoxifen]",Treated patients who may not achieve sufficiently high exposure,[1],over 20%
same,Lower breast cancer recurrence rate in patients with metabolite concentration above threshold,[2],26%
